Laboratory results from US4409238A, “Insecticides and insecticidal compositions” (Kuraray Co., Ltd., priority 1977, dated 1983).

Assays:
[1] = tested on: houseflies (Musca domestica); assay: Mortality test against houseflies by topical application method (Test Example 1); type: in vivo; conditions: female adult houseflies, 24 hours, 25° C.
Description: Each test compound was accurately weighed and a 1% solution and a 0.1% solution of the sample in acetone were prepared. A 1 μl portion of either of the above solutions was micropipetted onto the thoracic dorsal part of each female adult housefly (Musca domestica) under ether anaesthesia and the fly was released in a high-walled dish together with feed. The dish was covered with a metal-wire net and maintained at 25° C. After 24 hours, the test flies were inspected for deaths and the mortality (%) was calculated. Thirty test flies were used per concentration group.

[2] = tested on: green rice leafhoppers (Nephotettix cincticeps); assay: Mortality test against green rice leafhoppers by topical application method (Test Example 2); type: in vivo; conditions: 0.1% solution in acetone, female adults, 24 hours, 25° C.
Description: Each test compound was accurately weighed and an 0.1% solution in acetone was prepared. Female adults of green rice leafhopper (Nephotettix cincticeps) were anaesthetized with carbon dioxide gas and 0.5 µl of the above solution was micropipetted onto the thoracic abdominal part of each leafhopper. Then, the test leafhoppers were kept at 25° C. with access to rice plant seedlings. Each group comprised 15 green rice leafhoppers. After 24 hours, the leafhoppers were inspected for deaths and the mortality (%) was calculated for each compound.

[3] = tested on: cockroaches (Blattella germanica); assay: Mortality test against cockroaches by topical application method (Test Example 3); type: in vivo; conditions: 1 μl of 1% solution in acetone, female cockroaches, 24 hours, 25° C.
Description: Each test compound was accurately weighed and made in a 1% solution in acetone. Then, 1 μl of the above solution was micropipetted onto the abdominal part of each female cockroach (Blattella germanica) under ether anaesthesia. The roaches were released in a high-walled dish together with feed and, after the disk was covered with a metal wire net, same was maintained at 25° C. Fifteen roaches per group were employed. After 24 hours, the test roaches were inspected for deaths and the mortality (%) for each group was calculated.

[4] = Light stability test (Test Example 4); type: physicochemical; conditions: direct sunlight between glass plates, 12° C., relative to aluminum foil-covered control; for remaining at 4 h: read-out: Residue (%) Exposure time 4 hrs.; for remaining at 8 h: read-out: Residue (%) Exposure time 8 hrs.
Description: Into 2.0 ml of acetone were dissolved 80 mg of each test compound. A 5 μl portion of the solution was taken and spread on a glass plate (Micro Standard Cover Glass, 18 m/m No. 1, 200 pcs, Matsunami Glass Ind., Ltd.) and the acetone was evaporated. Then, a similar glass plate was superimposed on the above plate in such a manner that the test liquid was sandwitched. The specimen was exposed to direct sunlight at an atmospheric temperature of 12° C. for a predetermined exposure time. As an unexposed control, a similar specimen was covered with an aluminum foil. The test liquid was washed away with 1.0 ml of methanol containing 0.04% of dioctyl phthalate as an internal reference and high-speed liquid chromatography was carried out on the washings to determine the residual amount of the test compound. The residue (%) was calculated with the value for the aluminum foil-covered control specimen as the standard.

green rice leafhoppers = assay: Spray test on rice seedlings against green rice leafhoppers (Utility Example 1); type: in vivo, green rice leafhoppers (Nephotettix cincticeps); conditions: 30% emulsifiable concentrate (Formulation Example 5) diluted 300-fold, 10 ml/pot, 24 hours
Description: To 30 parts of each of Compounds [1], [2], [5] to [13] and [17] to [19] was added 50 parts of xylene and 20 parts of Sorpol SM-200 (a surfactant, trademark of Toho Chemical Co., Ltd.). The mixture was stirred well and dissolved to obtain a 30% emulsifiable concentrate.
The emulsifiable concentrate prepared from Compounds [1], [2], [6], [7], [9], [10], [12] and [13] in Formulation Example 5 were each diluted 300-fold with water. Then, each of the dilutions was sprayed over rice seedlings 25 days after sowing at the rate of 10 ml/pot. The pot was covered with a wire-net and 15 green rice leafhoppers were released under the net. After 24 hours, the leafhoppers were examined for deaths. The mortality (%) was not less than 90% for each of Compounds [1], [2], [6], [7], [9], [10], [12] and [13].

[5] = tested on: houseflies (Musca domestica); assay: Settling mist mortality test against houseflies, oil preparations of Formulation Example 1 (Utility Example 2); type: in vivo; conditions: oil preparation with 0.2 part compound and 0.8 part piperonyl butoxide per 100 parts, 24 hours
Description: 0.2 part of each of Compounds [1], [2], [5] to [13] and [17] was prepared and 0.8 part of piperonyl butoxide was added to each of them. To this mixture was added a sufficient amount of kerosene to make 100 parts, followed by stirring. By this procedure there was obtained an oil preparation of each Compound.
(§1) By the settling mist method, a mortality test against houseflies (Musca domestica) was carried out using the oil preparations obtained according to Formulation Example 1 from Compounds [1], [2], [5] to [11] to [17]. After 24 hours, the flies were examined for deaths. The mortality (%) was not less than 90% for each of Compounds [1], [2], [5] to [11] to [17].

houseflies = assay: Settling mist mortality test against houseflies, oil preparations of Formulation Example 2 (Utility Example 3); type: in vivo, houseflies (Musca domestica); conditions: oil preparation with 0.1 part compound and 0.1 part resmethrin per 100 parts, 24 hours
Description: To 0.1 part of each of Compounds [1] to [17] was added 0.1 part of resmethrin, followed by the addition of a sufficient amount of kerosene to make 100 parts. The mixture was stirred to obtain an oil preparation of each compound.
as §1, with “houseflies” for “houseflies (Musca domestica)”, “preparations made in” for “preparations obtained according to”, “Example 2” for “Example 1”, “[11] and” for “[11] to”

house-flies = assay: Settling mist mortality test against houseflies, oil preparations of Formulation Example 3 (Utility Example 4); type: in vivo, houseflies (Musca domestica); conditions: oil preparation with 0.1 part compound and 0.08 part permethrin per 100 parts, 24 hours
Description: To 0.1 part of each of Compounds [1] to [28] was added 0.08 part of permethrin, followed by the addition of a sufficient amount of kerosene to make 100 parts. The mixture was stirred to obtain an oil preparation of each compound.
as §1, with “against house-flies” for “against houseflies (Musca domestica)”, “obtained in” for “obtained according to”, “Example 3” for “Example 1”, “[11] and” for “[11] to”

[6] = Hydrolysis resistance test (Test Example 5); type: physicochemical; conditions: acetone/water, reflux for 2 days; read-out: Residue (%)
Description: Into about 8 ml of acetone were dissolved 100 mg of each test compound and, then, 1.0 g of water was added to this solution to prepare a mixed solution. This mixed solution was refluxed for 2 days. After concentration to about one half of the original volume and with the addition of dioctyl phthalate as an internal reference, the residual amount of the compound was determined by high-speed liquid chromatography. The residue (%) was then calculated.

guppies = assay: Fish toxicity test (Test Example 6); type: in vivo; conditions: female guppies, 48 hours, 25° C.; concentration at which 90% or more were killed
Description: To 5 l of water were added 250 mg of sorpol SM-200 (registered trademark, Toho Chemical Co., Ltd.) or Tween-20 (commercial product) as an emulsifier (surfactant) as well as 2.5 ml of an acetone solution containing one of the test compounds in a predetermined concentration. The mixture was stirred well to prepare a test water. Ten female guppies from 3 to 4 months of age were released into the test water and maintained at 25° C. The concentration of the test compound at which 90% or more of the guppies were killed during the ensuring 48 hours was determined. (This concentration is referred to as LC90).

| Structure (SMILES) | Mortality (%) 1 μg/fly [1] | Mortality (%) 10 μg/fly [1] | mortality at 0.1 % [2] | mortality at 1 %, 0.01 mg [3] | remaining at 4 h [4] | remaining at 8 h [4] | Mortality (%) (green rice leafhoppers) | Mortality (%) [5] | Mortality (%) (houseflies) | Mortality (%) (house-flies) | remaining at 48 h [6] | LC90 (guppies) |
| --- | --- | --- | --- | --- | --- | --- | --- | --- | --- | --- | --- | --- |
| CC(C)C(C=C(Cl)Cl)C(=O)OC(C#N)c1cccc(Oc2ccccc2)c1 (stereo not drawn) [Compound [1], α-Cyano-3-phenoxybenzyl α-(2,2-dichlorovinyl)isovalerate] | 100% | 100% | ≥ 90% | 100% | 93% | 90% | not less than 90% | not less than 90% | not less than 90% | not less than 90% | – | – |
| C#CC(OC(=O)C(C=C(Cl)Cl)C(C)C)c1cccc(Oc2ccccc2)c1 (stereo not drawn) [[2], α-Ethynyl-3-phenoxybenzyl α-(2,2-dichlorovinyl)isovalerate] | 100% | 100% | – | 80% | 97% | 100% | not less than 90% | not less than 90% | not less than 90% | not less than 90% | > 90% | Not less than 10 ppm |
